For the test, the target named is PD-1/PD-L1 (Homo sapiens (Human), UniProt Q9NZQ7). The test is described as follows: PD-1/PD-L1 Homogenous Time-Resolved Fluorescence (HTRF) binding assay. The conditions noted are these: PD-L1-His 10 nM, PD-1-Ig 20 nM. An excerpt:
The ability of the compounds of formula (I) to bind to PD-L1 was investigated using a PD-1/PD-L1 Homogenous Time-Resolved Fluorescence (HTRF) binding assay.
Homogenous Time-Resolved Fluorescence (HTRF) binding assay.
The interaction of PD-1 and PD-L1 can be assessed using soluble, purified preparations of the extracellular domains of the two proteins. The PD-1 and PD-L1 protein extracellular domains were expressed as fusion proteins with detection tags, for PD-1, the tag was the Fc portion of Immunoglobulin (PD-1-Ig) and for PD-L1 it was the 6 histidine motif (PD-L1-His). All binding studies were performed in an HTRF assay buffer consisting of dPBS supplemented with 0.1% […] bovine serum albumin and 0.05% (v/v) Tween-20. For the h/PD-L1-His binding assay, inhibitors were pre-incubated with PD-L1-His (10 nM final) for 15m in 4 μl of assay buffer, followed by addition of PD-1-Ig (20 nM final) in 1 µl of assay buffer and further incubation for 15m. HTRF detection was achieved using europium crypate-labeled anti-Ig (1 nM final) and allophycocyanin (APC) labeled anti-His (20 nM final). Antibodies were diluted in HTRF detection buffer and 5 μl was dispensed on top of the binding reaction. The reaction mixture was allowed to equilibrate for 30 minutes and the resulting signal (665 nm/620 nm ratio) was obtained using an EnVision fluorometer. Additional binding assays were established between the human proteins PD-1-Ig/PD-L2-His (20 & 5 nM, respectively) and CD8O-His/PD-L1-Ig (100 & 10 nM, respectively).
Recombinant Proteins: Human PD-1 (25-167) with a C-terminal human Fc domain of immunoglobulin G (Ig) epitope tag [hPD-1 (25-167)-3S-IG] and human PD-L1 (18-239) with a C-terminal His epitope tag [hPD-L1(18-239)-TVMV-His] were expressed in HEK293T cells and purified sequentially by ProteinA affinity chromatography and size exclusion chromatography. Human PD-L2-His and CD8O-His was obtained through commercial sources.
The table below lists the IC50 values for representative examples of this disclosure measured in the PD-1/PD-L1 Homogenous Time-Resolved Fluorescence (HTRF) binding assay.
On the technique in general: In TR-FRET formats the signal depends on donor and acceptor labels being close together.

Sequence of PD-1/PD-L1 (Q9NZQ7 other isoform, or with tags, fused parts or gaps): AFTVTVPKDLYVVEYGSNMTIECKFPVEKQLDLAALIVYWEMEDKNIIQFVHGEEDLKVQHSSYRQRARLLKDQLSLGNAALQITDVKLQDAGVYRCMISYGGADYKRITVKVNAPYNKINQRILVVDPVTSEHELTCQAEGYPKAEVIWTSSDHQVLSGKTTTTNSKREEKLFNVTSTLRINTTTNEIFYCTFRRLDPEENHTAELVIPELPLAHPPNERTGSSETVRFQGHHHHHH

The term IC50 denotes the point on the concentration scale where inhibition reaches its midpoint. Read a high IC50 as weaker potency in that assay. In the case of `CC(=O)NC1CCN(CCCOc2cccc(-c3cccc4c3CCC4Oc3cc(OCc4cncc(C#N)c4)c(CN4CCCC[C@H]4C(=O)O)cc3Cl)c2Cl)CC1` (stereo partly drawn) [Example 1017, (2S)-1-(4-((4-(3-(3-(4-Acetamidopiperidin-1-yl)propoxy)-2-chlorophenyl)-2,3-dihydro-1H-inden-1-yl)oxy)-5-chloro-2-((5-cyanopyridin-3-yl)methoxy)benzyl)piperidine-2-carboxylic acid], the concentration for half-maximal inhibition (IC50) was determined as 0.2 nM. Regarding `CN1CCC[C@H](COc2cccc(-c3cccc4c3CC[C@H]4Oc3cc(OCc4cncc(C#N)c4)c(CN[C@](C)(CO)C(=O)O)cc3Cl)c2Cl)C1` [Example 1010, (R)-2-((5-chloro-4-(((R)-4-(2-chloro-3-(((S)-1-methylpiperidin-3-yl)methoxy)phenyl)-2,3-dihydro-1H-inden-1-yl)oxy)-2-((5-cyanopyridin-3-yl)methoxy)benzyl)amino)-3-hydroxy-2-methylpropanoic acid], the concentration for half-maximal inhibition (IC50) came to 2 nM.

The compound `CC(=O)NC1CCN(CCCOc2cccc(-c3cccc4c3CCC4Oc3cc(OCc4cncc(C#N)c4)c(CN[C@@H](CCO)C(=O)O)cc3Cl)c2Cl)CC1` (stereo partly drawn) [Example 1018, (4-((4-(3-(3-(4-Acetamidopiperidin-1-yl)propoxy)-2-chlorophenyl)-2,3-dihydro-1H-inden-1-yl)oxy)-5-chloro-2-((5-cyanopyridin-3-yl)methoxy)benzyl)-L-homoserine] gave an IC50 of 2.9 nM. In the case of `CN1CCC[C@H](COc2cccc(-c3cccc4c3CC[C@@H]4Oc3cc(OCc4cncc(C#N)c4)c(CN[C@](C)(CO)C(=O)O)cc3Cl)c2Cl)C1` [Example 1008, (R)-2-((5-chloro-4-(((S)-4-(2-chloro-3-(((S)-1-methylpiperidin-3-yl)methoxy)phenyl)-2,3-dihydro-1H-inden-1-yl)oxy)-2-((5-cyanopyridin-3-yl)methoxy)benzyl)amino)-3-hydroxy-2-methylpropanoic acid] it was 3 nM; in that of `CN1CCC[C@@H](COc2cccc(-c3cccc4c3CC[C@H]4Oc3cc(OCc4cncc(C#N)c4)c(CN[C@](C)(CO)C(=O)O)cc3Cl)c2Cl)C1` [Example 1006, (R)-2-((5-chloro-4-(((R)-4-(2-chloro-3-(((R)-1-methylpiperidin-3-yl)methoxy)phenyl)-2,3-dihydro-1H-inden-1-yl)oxy)-2-((5-cyanopyridin-3-yl)methoxy)benzyl)amino)-3-hydroxy-2-methylpropanoic acid], 3.5 nM; in that of `CN1CCC[C@H](COc2cccc(-c3cccc4c3CC[C@H]4Oc3cc(OCc4cncc(C#N)c4)c(CO)cc3Cl)c2Cl)C1` [Example 1011, 5-((4-chloro-5-(((R)-4-(2-chloro-3-(((S)-1-methylpiperidin-3-yl)methoxy)phenyl)-2,3-dihydro-1H-inden-1-yl)oxy)-2-(hydroxymethyl)phenoxy)methyl)nicotinonitrile], 10.4 nM. As to `Cc1c(OCCCN2CC[C@@H](O)C2)cccc1-c1cccc2c1CCC2Oc1cc(OCc2cncc(C#N)c2)c(CO)cc1Cl` (stereo partly drawn) [Example 1013, 5-((4-Chloro-2-(hydroxymethyl)-5-((4-(3-(3-((R)-3-hydroxypyrrolidin-1-yl)propoxy)-2-methylphenyl)-2,3-dihydro-1H-inden-1-yl)oxy)phenoxy)methyl)nicotinonitrile], the IC50 stood at 18.1 nM. `Cc1c(OCCCN2CC[C@@H](O)C2)cccc1-c1cccc2c1CCC2Oc1cc(OCc2cncc(C#N)c2)c(CN[C@@H](CCO)C(=O)O)cc1Cl` (stereo partly drawn) [Example 1015, (5-chloro-2-((5-cyanopyridin-3-yl)methoxy)-4-((4-(3-(3-((R)-3-hydroxypyrrolidin-1-yl)propoxy)-2-methylphenyl)-2,3-dihydro-1H-inden-1-yl)oxy)benzyl)-L-homoserine] registered a concentration for half-maximal inhibition (IC50) of 1.9 nM.

As to `CN1CCCC(COc2cccc(-c3cccc4c3CCC4Oc3cc(OCc4cncc(C#N)c4)c(CO)cc3Cl)c2Cl)C1` (stereo not drawn) [Example 1003, 5-((4-Chloro-5-((4-(2-chloro-3-((1-methylpiperidin-3-yl)methoxy)phenyl)-2,3-dihydro-1H-inden-1-yl)oxy)-2-(hydroxymethyl)phenoxy)-methyl)nicotinonitrile], the half-maximal inhibitory concentration (IC50) was 9.1 nM.

`CC(=O)NC1CCN(CCCOc2cccc(-c3cccc4c3CCC4Oc3cc(OCc4cncc(C#N)c4)c(CN[C@](C)(CO)C(=O)O)cc3Cl)c2Cl)CC1` (stereo partly drawn) [Example 1016, (2R)-2-((4-((4-(3-(3-(4-Acetamidopiperidin-1-yl)propoxy)-2-chlorophenyl)-2,3-dihydro-1H-inden-1-yl)oxy)-5-chloro-2-((5-cyanopyridin-3-yl)methoxy)benzyl)amino)-3-hydroxy-2-methylpropanoic acid] came in with a half-maximal inhibitory concentration (IC50) of 3.4 nM. As for `C[C@](CO)(NCc1cc(Cl)c(OC2CCc3c(-c4cccc(OCCCNC[C@H](O)CO)c4Cl)cccc32)cc1OCc1cncc(C#N)c1)C(=O)O` (stereo partly drawn) [Example 1019, (2R)-2-((5-chloro-4-((4-(2-chloro-3-(3-(((S)-2,3-dihydroxypropyl)amino)propoxy)phenyl)-2,3-dihydro-1H-inden-1-yl)oxy)-2-((5-cyanopyridin-3-yl)methoxy)benzyl)amino)-3-hydroxy-2-methylpropanoic acid], the half-inhibitory concentration (IC50) came out at 2.5 nM. In turn, `CN1CCCC(COc2cccc(-c3cccc4c3CCC4Oc3cc(OCc4cncc(C#N)c4)c(CN[C@](C)(CO)C(=O)O)cc3Cl)c2Cl)C1` (stereo partly drawn) [Example 1002, (2R)-2-((5-Chloro-4-((4-(2-chloro-3-((1-methylpiperidin-3-yl)methoxy)phenyl)-2,3-dihydro-1H-inden-1-yl)oxy)-2-((5-cyanopyridin-3-yl)methoxy)benzyl)amino)-3-hydroxy-2-methylpropanoic acid] showed an IC50 of 0.9 nM.

Values taken from patent US11578054B2, “Compounds useful as immunomodulators” (Bristol-Myers Squibb Company, priority 2018, dated 2023).
